Here are results for 24 molecules from patent US20230167073A1 (Teijin Pharma Limited, priority 2020, published 2023).

The structures appear in SMILES notation.

This assay has as its target T1, Human TRPC6 (Homo sapiens, UniProt Q9Y210).
T1 construct: expressed in transfected cells
T1 sequence (Q9Y210 1-931): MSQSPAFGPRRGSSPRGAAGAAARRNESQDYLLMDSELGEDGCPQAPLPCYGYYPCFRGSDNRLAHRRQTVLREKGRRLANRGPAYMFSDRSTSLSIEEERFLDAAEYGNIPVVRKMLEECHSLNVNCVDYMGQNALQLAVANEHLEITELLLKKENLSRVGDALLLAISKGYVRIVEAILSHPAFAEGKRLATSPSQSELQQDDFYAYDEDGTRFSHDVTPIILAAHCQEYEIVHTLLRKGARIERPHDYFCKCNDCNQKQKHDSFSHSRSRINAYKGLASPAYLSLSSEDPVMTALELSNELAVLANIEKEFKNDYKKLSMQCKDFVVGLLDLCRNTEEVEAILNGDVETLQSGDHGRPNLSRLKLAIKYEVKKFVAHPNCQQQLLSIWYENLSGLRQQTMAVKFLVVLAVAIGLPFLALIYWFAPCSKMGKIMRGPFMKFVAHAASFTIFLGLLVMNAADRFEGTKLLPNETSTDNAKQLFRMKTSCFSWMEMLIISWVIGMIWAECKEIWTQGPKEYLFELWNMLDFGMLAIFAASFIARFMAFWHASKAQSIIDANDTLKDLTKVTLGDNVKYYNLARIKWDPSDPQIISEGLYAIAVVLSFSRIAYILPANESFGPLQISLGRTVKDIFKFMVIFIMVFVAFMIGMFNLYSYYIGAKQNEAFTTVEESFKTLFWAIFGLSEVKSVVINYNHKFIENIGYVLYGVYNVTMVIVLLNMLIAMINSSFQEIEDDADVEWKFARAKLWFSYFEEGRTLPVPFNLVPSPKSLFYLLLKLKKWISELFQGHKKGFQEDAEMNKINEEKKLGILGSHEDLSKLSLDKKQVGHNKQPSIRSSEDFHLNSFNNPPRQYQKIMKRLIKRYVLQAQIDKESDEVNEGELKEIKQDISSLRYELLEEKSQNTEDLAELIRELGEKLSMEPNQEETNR
Description: Evaluation of TRPC6 channel inhibitory activity (2), HEK293 cells with stably introduced human TRPC6, OAG stimulation, FLIPR tetra (Compound Nos. 1293 to 1405). The conditions noted are these: HEK293 cells with stably introduced human TRPC6, OAG 50 μM/0.5% DMSO, read-out: Inhibitory activity (pIC50 class) (converted). The assay is classed as cell-based. Here is the method:
Evaluation of TRPC6 Channel Inhibitory Activity (2) (Compound Nos. 1293 to 1405)
The activity of the TRPC6 inhibitor was measured by stimulating HEK293 cells, in which human TRPC6 was stably introduced, with OAG (1-Oleoyl-2-acetyl-sn-glycerol, Miliipore Sigma, 06754), using the FLIPR tetra system. The cells were proliferated in a humid environment at 37° C. 5% CO2 using a growth medium (DMEM (Dulbecco's Modified Eagle's Medium) high glucose containing 10% fetal bovine serum, 1×PSGlu (penicillin-streptomycin glutamine), 1×NEAA (Non-essential amino acid), sodium pyruvate and 200 μg/mL hyglomycin. For cell subculture, the cells were proliferated to 70-90% confluence, and gently washed twice with PBS (phosphate-buffered saline) free of calcium and magnesium after removing the medium. Then, the cells were incubated at 37° C. for 5 minutes after adding trypsin (3 mL), peeled off by tapping the flask at the base of the hand, 7 mL of growth medium was added to inactivate trypsin, and then the cells were resuspended. Usually, the cells were separated every 2-3 days to become a cell density of ⅕. The day before evaluation, the cells were seeded in a poly-D-lysine (PDL) coated 384-well plate using a multi-channel pipette or multidrop at a cell density of 1.0-1.5×10^4 cells/25 μL/well. After culturing overnight in a PDL-coated 384 Blackwell plate, a fluorescent dye buffer was added first to the cells and the cells were cultured at room temperature for 90-120 minutes. For preparing 10 mL of fluorescent dye buffer, 9 mL of assay buffer, 1 mL of 10×PBX signal enhancer, and 10 μL of calcium indicator were mixed. Cells treated with the compounds of each level 25 minutes before the stimulation with OAG of TRPC6 agonist were incubated. OAG solution was prepared by adding OAG to assay buffer (Ca ringer solution base: 10 mM HEPES (4-(2-hydroxyethyl)-1-piperazine-ethanesulfonic acid), 4 mM MgCl2, 120 mM NaCl, 5 mM KCl, pH=7.2 (25° C.)+0.1% BSA+2 mM CaCl2)) to give an OAG concentration of 0.2 mM/2% DMSO. The final concentration of OAG added to the cells is 50 μM/0.5% DMSO. A volume of 12.5 μL of OAG solution was added, and activation of TRPC6 channel was measured using the FLIPR tetra system assaying the change in intracellular calcium level as an index. The 180 seconds imaging frame was defined as the background signal, and the subtraction of the background signal from the raw data was used as the fluorescence peak signal. Each fluorescence peak signal is standardized using an OAG-induced signal and buffer-induced signal as 100% and 0%, respectively. The inhibition rate obtained by plotting the peak signal after the addition of the compounds of each level was analyzed by a four-parameter logistic regression to quantify the inhibition rate in the logarithm of the inverse of the effective concentration which gives a 50% inhibition rate (pIC50). The intensity was expressed by the above-mentioned symbols (+, ++, +++).
With `Cn1nc(C2CCOCC2)cc1Oc1cc(Cl)ccc1-c1ccc([C@H](F)CN)cn1` [compound 1386, (2S)-2-[6-[4-chloro-2-[2-methyl-5-(oxan-4-yl)pyrazol-3-yl]oxyphenyl]pyridin-3-yl]-2-fluoroethanamine], the IC50 was 10 to 1000 nM.
For `Cn1nc(C2CCOCC2)cc1Oc1cc(C#N)ccc1-c1ccc([C@@H](F)CN)cn1` [compound 1368, 4-[5-[(1R)-2-amino-1-fluoroethyl]pyridin-2-yl]-3-[2-methyl-5-(oxan-4-yl)pyrazol-3-yl]oxybenzonitrile] the value was less than 10 nM; for `Cc1cc(Oc2cc(Cl)ccc2-c2ccc([C@H](O)CN)cn2)cc(N2CCOCC2)n1` [compound 1396, (1S)-2-amino-1-[6-[4-chloro-2-(2-methyl-6-morpholin-4-ylpyridin-4-yl)oxyphenyl]pyridin-3-yl]ethanol], 10 to 1000 nM; for `Cn1nc(C2CCOCC2)cc1Oc1cc(Cl)ccc1-c1ccc(CN)cn1` [compound 1361, [6-[4-chloro-2-[2-methyl-5-(oxan-4-yl)pyrazol-3-yl]oxyphenyl]pyridin-3-yl]methanamine], less than 10 nM.
On to `Cc1cc(Oc2cc(C#N)ccc2-c2ccc([C@H](F)CN)cn2)cc(N2CCOCC2)n1` [compound 1300, 4-[5-[(1S)-2-amino-1-fluoroethyl]pyridin-2-yl]-3-(2-methyl-6-morpholin-4-ylpyridin-4-yl)oxybenzonitrile], for which the IC50 was less than 10 nM.
With `CNc1ccc(-c2ccc(C#N)cc2Oc2cc(C)nc(N3CCOCC3)c2)nc1` [compound 1307, 4-[5-(methylamino)pyridin-2-yl]-3-(2-methyl-6-morpholin-4-ylpyridin-4-yl)oxybenzonitrile], the IC50 is more than 1000 nM.
As to `Cc1nc(Oc2cc(Cl)ccc2-c2ncc(CCN)cn2)cc(N2CCOCC2)n1` [compound 1378, 2-[2-[4-chloro-2-(2-methyl-6-morpholin-4-ylpyrimidin-4-yl)oxyphenyl]pyrimidin-5-yl]ethanamine], the IC50 was 10 to 1000 nM.
Under `Cn1nc(-c2ccccn2)cc1Oc1cc(C#N)cnc1-c1ccc(CCN)cc1` [compound 1331, 6-[4-(2-aminoethyl)phenyl]-5-(2-methyl-5-pyridin-2-ylpyrazol-3-yl)oxypyridine-3-carbonitrile] stands more than 1000 nM; under `COc1nc(-c2ccc(C#N)cc2Oc2cc(C)nc(N3CCOCC3)c2)ccc1CN` [compound 1305, 4-[5-(aminomethyl)-6-methoxypyridin-2-yl]-3-(2-methyl-6-morpholin-4-ylpyridin-4-yl)oxybenzonitrile], 10 to 1000 nM; under `Cn1nc(C2CC2)cc1Oc1cc(Cl)ccc1-c1ccc(CN)cn1` [compound 1346, [6-[4-chloro-2-(5-cyclopropyl-2-methylpyrazol-3-yl)oxyphenyl]pyridin-3-yl]methanamine], less than 10 nM.
Turning to `Cn1nc(C2CC2)cc1Oc1cc(Cl)cnc1-c1ccc([C@H](F)CN)cn1` [compound 1371, (2S)-2-[6-[5-chloro-3-(5-cyclopropyl-2-methylpyrazol-3-yl)oxypyridin-2-yl]pyridin-3-yl]-2-fluoroethanamine], the IC50 was less than 10 nM.
Under `Cc1cc(Oc2cc(Cl)ccc2-c2ccc([C@@H](F)CN)cn2)cc(N2CCOCC2)n1` [compound 1394, (2R)-2-[6-[4-chloro-2-(2-methyl-6-morpholin-4-ylpyridin-4-yl)oxyphenyl]pyridin-3-yl]-2-fluoroethanamine] stands 10 to 1000 nM; under `Cn1nc([C@H]2CCCO2)cc1Oc1cc(C#N)ccc1-c1ccc(CCN)cn1` [compound 1317], less than 10 nM; under `Cc1nc(Oc2cc(Cl)ccc2-c2ncc([C@H](O)CN)cn2)cc(N2CCOCC2)n1` [compound 1377, (1S)-2-amino-1-[2-[4-chloro-2-(2-methyl-6-morpholin-4-ylpyrimidin-4-yl)oxyphenyl]pyrimidin-5-yl]ethanol], 10 to 1000 nM.
In the case of `Cn1nc(C2CCOCC2)cc1Oc1cc(C#N)ccc1-c1ccc([C@H](F)CN)cn1` [compound 1369, 4-[5-[(1S)-2-amino-1-fluoroethyl]pyridin-2-yl]-3-[2-methyl-5-(oxan-4-yl)pyrazol-3-yl]oxybenzonitrile], the IC50 is less than 10 nM.
As for `Cn1nc(-c2ccccn2)cc1Oc1cc(C#N)ccc1-c1ncc([C@H](F)CN)cn1` [compound 1296, 4-[5-[(1S)-2-amino-1-fluoroethyl]pyrimidin-2-yl]-3-(2-methyl-5-pyridin-2-ylpyrazol-3-yl)oxybenzonitrile], the IC50 is less than 10 nM.
`Cn1nc(-c2ccccn2)cc1Oc1cc(C#N)ccc1-c1ccc(CN)nn1` [compound 1326, 4-[6-(aminomethyl)pyridazin-3-yl]-3-(2-methyl-5-pyridin-2-ylpyrazol-3-yl)oxybenzonitrile]: the IC50 was 10 to 1000 nM.
For `Cc1cc(Oc2cc(Cl)ccc2-c2ccc([C@@H](O)CN)cn2)cc(N2CCOCC2)n1` [compound 1395, (1R)-2-amino-1-[6-[4-chloro-2-(2-methyl-6-morpholin-4-ylpyridin-4-yl)oxyphenyl]pyridin-3-yl]ethanol] the value was less than 10 nM; for `Cn1nc(-c2ccccn2)cc1Oc1cc(Cl)ccc1-c1ncc([C@@H](F)CN)cn1` [compound 1325, (2R)-2-[2-[4-chloro-2-(2-methyl-5-pyridin-2-ylpyrazol-3-yl)oxyphenyl]pyrimidin-5-yl]-2-fluoroethanamine], less than 10 nM.
`Cn1nc(-c2ccccc2)nc1Oc1cc(Cl)ccc1-c1ncc(CN)cn1` [compound 1364, [2-[4-chloro-2-[(2-methyl-5-phenyl 1,2,4-triazol-3-yl)oxy]phenyl]pyrimidin-5-yl]methanamine]: the IC50 is more than 1000 nM.
On to `Cc1cc(Oc2nc(Cl)ccc2-c2ccc(CCN)cc2)cc(N2CCOCC2)n1` [compound 1329, 2-[4-[6-chloro-2-(2-methyl-6-morpholin-4-ylpyridin-4-yl)oxypyridin-3-yl]phenyl]ethanamine], for which the IC50 is more than 1000 nM.
As to `Cn1nc(C2CCOCC2)cc1Oc1cc(Cl)ccc1-c1ncc([C@H](F)CN)cn1` [compound 1359, (2S)-2-[2-[4-chloro-2-[2-methyl-5-(oxan-4-yl)pyrazol-3-yl]oxyphenyl]pyrimidin-5-yl]-2-fluoroethanamine], the IC50 is 10 to 1000 nM.
Regarding `Cn1nc(-c2ccccn2)cc1Oc1cc(Cl)cnc1-c1ncc(CN)cn1` [compound 1351, [2-[5-chloro-3-(2-methyl-5-pyridin-2-ylpyrazol-3-yl)oxypyridin-2-yl]pyrimidin-5-yl]methanamine], the IC50 was more than 1000 nM.
In the case of `Cn1nc(C2CCOCC2)cc1Oc1cc(Cl)ccc1-c1ncc([C@H](O)CN)cn1` [compound 1388, (1S)-2-amino-1-[2-[4-chloro-2-[2-methyl-5-(oxan-4-yl)pyrazol-3-yl]oxyphenyl]pyrimidin-5-yl]ethanol], the IC50 is 10 to 1000 nM.
